Experimental data: patent US11730717B1, “Melanin-inspired antimicrobial” (The Board of Regents for the Oklahoma Agricultural and …, priority 2020, dated 2023)
Several values for one entry are separate records, joined by “and”; a condition that tells them apart may be missing. Equal entries are not always repeated.

What was measured:
Type in all cases: cell-based
[1] = system: Gram-positive bacteria, including E. faecalis and clinical isolates MRSA; assay: MIC summary for Gram-positive bacteria
Method: The minimum inhibitory concentrations (MICs) were determined by the broth microdilution method, following the guidelines of the Clinical and Laboratory Standards Institute (CLSI). Two-fold serial dilutions of EIPE-1, DBI, and Arm (starting with 1 mg/mL) were prepared in a 100 μL volume in 96-well microtiter plates. The dilution series included DMSO as a negative control. The bacterial culture […] was normalized to an OD600 of 0.2 and was then added to each well. Plates were incubated with shaking at 220 RPM at 37° C., and the MIC was determined based on the lowest concentration at which no visible growth of the bacterial isolate was observed.
In summary, a new antimicrobial, EIPE-1, was designed and synthesized, inspired by the black-brown pigment, Eumelanin. It was confirmed that the Eumelanin-inspired core DBI maintained its intrinsic antimicrobial activity, and that enhancement could be achieved with the incorporation of bactericidal moieties. […] Bactericidal effects of EIPE-1 against S. aureus were monitored and confirmed using the Live/Dead staining and fluorescent microscopy.

Deinoccus radiophilus = assay: Disc agar diffusion assay; conditions: Group 2: Gram-positive organisms
Method: (§1) As a further test of an embodiment, the antibacterial properties of EIPE-1 were tested across a large panel of organisms. EIPE-1 was dissolved in DMSO, impregnated onto sterile filter paper disks, and DMSO served as the untreated control according to the following procedure: • 1. Prepare a 2.5 μg/μL stock solution of EIPE-1 by micro pipetting 200 μL of DMSO into 2.0 mL Eppendorf Tube containing 0.5 mg of EIPE-1. Dissolve with vortex agitation and store at 4° C. • 2. Use forceps to pick up sterile 6.0 mm blank paper disks. Make sure to touch only one side of disc as lightly as possible. While holding blank paper disc, deliver 10.0 μL of the 2.5 μg/μL EIPE-1 solution by touching the micropipette tip to the center of the blank paper disc. Lean the impregnated disc up against the side of a small sterile glass petri dish. Follow same procedure for DMSO control. Allow disks several hours to dry under flowing sterile air. • 3. Inoculate starter cultures using cells from working culture cultivated on Mueller-Hinton Agar (MHA; Difco Laboratories). Starters consist of ˜20 mL of Mueller-Hinton Broth (MHB; Difco Laboratories) in 125-mL culture flasks. Incubate starter cultures in an Excella E24 Benchtop Incubator Shaker (New Brunswick Scientific Co., Inc., Edison, N.J., USA) at 37° C. and 180 rpm for 15-18 hours. • 4. Pour at least 5.0 mL of NMB into 18-mL Kimax tubes. Use a Pasteur pipette to deliver enough of the starter culture cell suspension to reach an optical density (OD620) of 0.025 (Spectronic™ 20 optical spectrophotometer; Thermo Electron Corp., Madison, Wis., USA). Ensure that both transmittance and absorbance are set to 0.0 using a blank NMB sample. Incubate in rotary shaking incubator at 37° C. and 180 rpm until optical density reaches 0.1. • 5. Deliver 100 μL of test culture to the middle of a small 100 mm×15 mm Petri dish containing ˜⅛ in thickness of MHA. • 6. Saturate a sterile cotton swab with MHB by dipping the cotton swab into KIMAX® tube with MHB and then touch the swab to the north, south, east, and west side of the KIMAX® tube to remove excess broth. • 7. Streak the inoculum as follows: • a. Start in the center and make four straight lines to the 12, 3, 6, and 9 o'clock position on the petri dish. • b. Start at the 12 o'clock position and streak side to side all the way down the plate to the 6 o'clock position. […] Rotate the petri dish 90° and complete the same side to side streak all the way down the petri dish. • d. Complete step c. twice more. • e. Rotate petri dish 45° and complete the side-to-side streak. • f. Rotate petri dish 90° and complete the side-to-side streak. • 8. Use sterile forceps to transfer the DMSO control paper disc onto the agar surface and pat the paper disc down to ensure flush contact. Use the same technique to deliver EIPE-1 paper disc. • 9. Place petri dish at 4° C. for 1.0 hour to allow EIPE-1 diffusion in the absence of growth. • 10. Incubate petri dish at 37° C. for 18 hours. • 11. Observe for zones of growth inhibition surrounding disks. Measure diameter with electronic caliper and subtract 6.0-mm disc diameter. Results • a) Each organism was initially tested once to serve as a screen.

Enterococcus faecalis = assay: Disc agar diffusion assay; conditions: Group 2: Gram-positive organisms
Method: as §1

[2] = system: Escherichia coli ATCC 25922; assay: Disc agar diffusion assay; conditions: Group 1: Gram-negative organisms
Method: as §1

Lactococcus lactis = assay: Disc agar diffusion assay
Method: as §1

Serratia marcescens 8100 = assay: Disc agar diffusion assay; conditions: Group 1: Gram-negative organisms
Method: as §1

[3] = system: Serratia marcescens ATCC 13880; assay: Disc agar diffusion assay; conditions: Group 1: Gram-negative organisms
Method: as §1

Serratia marcescens db11 = assay: Disc agar diffusion assay; conditions: Group 1: Gram-negative organisms
Method: as §1

[4] = system: Serratia odorifera ATCC 53077; assay: Disc agar diffusion assay; conditions: Group 1: Gram-negative organisms
Method: as §1

[5] = system: Serratia plymuthica ATCC 183; assay: Disc agar diffusion assay; conditions: Group 1: Gram-negative organisms
Method: as §1

[6] = system: Serratia rubidaea ATCC 27593; assay: Disc agar diffusion assay; conditions: Group 1: Gram-negative organisms
Method: as §1

[7] = system: Staphylococcus aureus ATCC 29213; assay: Disc agar diffusion assay
Method: as §1

COC(=O)c1cc2c(C#Cc3ccc(OCCC[N+](C)(C)C)cc3)c(OC)c(OC)c(C#Cc3ccc(OCCC[N+](C)(C)C)cc3)c2n1C [EIPE-1, 3,3′-((((5,6-dimethoxy-2-(methoxycarbonyl)-1-methyl-1H-indole-4,7-diyl)bis(ethyne-2,1-diyl))bis(4,1-phenylene))bis(oxy))bis(N,N,N-trimethylpropan-1-aminium) iodide]
MIC [1]: 8 µg/mL to 16 µg/mL and 8.5 µM to 17 µM | susceptibility group in disc diffusion screen (Deinoccus radiophilus): resistant | susceptibility group in disc diffusion screen (Enterococcus faecalis): resistant | susceptibility group in disc diffusion screen [2]: resistant | susceptibility group in disc diffusion screen (Lactococcus lactis; Group 2: Gram-positive organisms): resistant | zone of inhibition at 25 µg/disc (Lactococcus lactis; Lactococcus lactis, L. lactis, 25 μg per disk, zone minus disk diameter (6.0mm), read-out: Inhibition Zone Diameter (mm) ± SD): 0.4 ± 0.6 mm | susceptibility group in disc diffusion screen (Serratia marcescens 8100): resistant | susceptibility group in disc diffusion screen [3]: resistant | susceptibility group in disc diffusion screen (Serratia marcescens db11): resistant | susceptibility group in disc diffusion screen [4]: resistant | susceptibility group in disc diffusion screen [5]: resistant | susceptibility group in disc diffusion screen [6]: resistant | susceptibility group in disc diffusion screen ([7]; Group 3: Gram-positive organisms): susceptible | zone of inhibition at 25 µg/disc ([7]; Staphylococcus aureus, ATCC29213, S. aureus ATCC 29213, 25 μg per disk, zone minus disk diameter (6.0mm), read-out: Inhibition Zone Diameter (mm) ± SD): 2.2 ± 0.6 mm | zone of inhibition at 250 µg/disc ([7]; Staphylococcus aureus, ATCC29213, S. aureus ATCC 29213, 250 μg per disk, zone minus disk diameter (6.0mm), read-out: Inhibition Zone Diameter (mm) ± SD): 2.9 ± 0.3 mm
